Assay [1] deals with T1, full-length SARS-CoV-2 3CL protease (Severe acute respiratory syndrome coronavirus 2, UniProt P0DTD1).
T1 construct: measures the activity of full-length SARS-CoV-2 3CL protease
Description: SARS-CoV-2 Coronavirus 3C Protease FRET Assay (Dabcyl-KTSAVLQ-SGFRKME-Edans substrate). The class given is biochemical. Particulars: 15 nM enzyme, 25 μM peptide substrate, 60 minutes at 23° C.; Morrison equation fit; read-out: Geometric Mean Ki.

Assay [2] relates to SARS-CoV-2 (USA_WA1/2020) in VeroE6 cells enriched for hACE2 expression. Description: microbe, parasite or virus in culture. The class given is cell-based. Particulars: Severe acute respiratory syndrome coronavirus 2, Vero C1008, 72 h, read-out: Geometric Mean EC50.

For orientation: Ki means the equilibrium dissociation constant of an inhibitor or competing ligand from its target. Broadly, the EC50 is the concentration at which the effect is half-maximal. For the molecule `COc1cccc2[nH]c(C(=O)N[C@@H](CC(C)C)C(=O)N[C@@H](C[C@@H]3CCNC3=O)C(=O)COC(=O)C(C)C)cc12` [Example 10, (3S)-3-({N-[(4-methoxy-1H-indol-2-yl)carbonyl]-L-leucyl}amino)-2-oxo-4-[(3S)-2-oxopyrrolidin-3-yl]butyl 2-methylpropanoate], the Ki in assay [1] came out at 63.7 nM. Also, the concentration for a half-maximal effect (EC50) in assay [2] came out at 205 nM.
In the same order, the values of `COc1cccc2[nH]c(C(=O)N[C@@H](CC(C)C)C(=O)N[C@@H](C[C@@H]3CCNC3=O)C(=O)COC(=O)C3CCCCC3)cc12` [Example 12, (3S)-3-({N-[(4-methoxy-1H-indol-2-yl)carbonyl]-L-leucyl}amino)-2-oxo-4-[(3S)-2-oxopyrrolidin-3-yl]butyl cyclohexanecarboxylate] are 73.8 nM and 109 nM.
Consider `COc1cccc2[nH]c(C(=O)N[C@@H](CC(C)C)C(=O)N[C@@H](C[C@@H]3CCNC3=O)C(=O)COC(=O)C3(C)CCC3)cc12` [Example 14, (3S)-3-({N-[(4-methoxy-1H-indol-2-yl)carbonyl]-L-leucyl}amino)-2-oxo-4-[(3S)-2-oxopyrrolidin-3-yl]butyl 1-methylcyclobutanecarboxylate], for which the Ki in assay [1] stood at 348 nM. Moreover, the EC50 in assay [2] was 505 nM.
As for `COc1cccc2[nH]c(C(=O)N[C@@H](CC(C)C)C(=O)N[C@@H](C[C@@H]3CCNC3=O)C(=O)COC(=O)c3c(C)nn(C)c3C)cc12` [Example 48, (3S)-3-({N-[(4-methoxy-1H-indol-2-yl)carbonyl]-L-leucyl}amino)-2-oxo-4-[(3S)-2-oxopyrrolidin-3-yl]butyl 1,3,5-trimethyl-1H-pyrazole-4-carboxylate], the Ki in assay [1] worked out at 255 nM.
On the same count and under the same terms, as for `COc1cccc2[nH]c(C(=O)N[C@@H](CC(C)C)C(=O)N[C@@H](C[C@@H]3CCNC3=O)C(=O)COC(=O)c3cn(C)cn3)cc12` [Example 51, (3S)-3-({N-[(4-methoxy-1H-indol-2-yl)carbonyl]-L-leucyl}amino)-2-oxo-4-[(3S)-2-oxopyrrolidin-3-yl]butyl 1-methyl-1H-imidazole-4-carboxylate], the figure is 152 nM.
Take `COc1cccc2[nH]c(C(=O)N[C@@H](CC(C)C)C(=O)N[C@@H](C[C@@H]3CCNC3=O)C(=O)COC(=O)c3ccccc3CN(C)C)cc12` [Example 53, (3S)-3-({N-[(4-methoxy-1H-indol-2-yl)carbonyl]-L-leucyl}amino)-2-oxo-4-[(3S)-2-oxopyrrolidin-3-yl]butyl 2-[(dimethylamino)methyl]benzoate]: in assay [1], the Ki was determined as 14 nM. Moreover, the concentration for a half-maximal effect (EC50) in assay [2] is 538 nM.
Regarding `COc1cccc2[nH]c(C(=O)N[C@@H](CC(C)C)C(=O)N[C@@H](C[C@@H]3CCNC3=O)C(=O)COC(=O)c3c(C)ccnc3CN(C)C)cc12` [Example 59, (3S)-3-({N-[(4-methoxy-1H-indol-2-yl)carbonyl]-L-leucyl}amino)-2-oxo-4-[(3S)-2-oxopyrrolidin-3-yl]butyl 2-[(dimethylamino)methyl]-4-methylpyridine-3-carboxylate], the Ki in assay [1] was determined as 13.6 nM.
Still for that read-out and setting: as for `COc1cccc2[nH]c(C(=O)N[C@@H](CC(C)C)C(=O)N[C@@H](C[C@@H]3CCNC3=O)C(=O)COC(=O)c3c(C)ccnc3C)cc12` [Example 62, (3S)-3-({N-[(4-methoxy-1H-indol-2-yl)carbonyl]-L-leucyl}amino)-2-oxo-4-[(3S)-2-oxopyrrolidin-3-yl]butyl 2,4-dimethylpyridine-3-carboxylate], the figure is 4.29 nM; as for `CCOc1nccc(C)c1C(=O)OCC(=O)[C@H](C[C@@H]1CCNC1=O)NC(=O)[C@H](CC(C)C)NC(=O)c1cc2c(OC)cccc2[nH]1` [Example 64, (3S)-3-({N-[(4-methoxy-1H-indol-2-yl)carbonyl]-L-leucyl}amino)-2-oxo-4-[(3S)-2-oxopyrrolidin-3-yl]butyl 2-ethoxy-4-methylpyridine-3-carboxylate], 34.9 nM.
Turning to `COc1cccc2[nH]c(C(=O)N[C@@H](CC(C)C)C(=O)N[C@@H](C[C@@H]3CCNC3=O)C(=O)COC(=O)c3c(C)cc(C#N)cc3C)cc12` [Example 65, (3S)-3-({N-[(4-methoxy-1H-indol-2-yl)carbonyl]-L-leucyl}amino)-2-oxo-4-[(3S)-2-oxopyrrolidin-3-yl]butyl 4-cyano-2,6-dimethylbenzoate], in assay [1], the inhibition constant (Ki) was 7.67 nM. In addition, the EC50 in assay [2] is 51.3 nM.
For `COc1cccc(C)c1C(=O)OCC(=O)[C@H](C[C@@H]1CCNC1=O)NC(=O)[C@H](CC(C)C)NC(=O)c1cc2c(OC)cccc2[nH]1` [Example 66, (3S)-3-({N-[(4-methoxy-1H-indol-2-yl)carbonyl]-L-leucyl}amino)-2-oxo-4-[(3S)-2-oxopyrrolidin-3-yl]butyl 2-methoxy-6-methylbenzoate], in assay [1], the inhibition constant Ki is 39.6 nM.
Take `COc1cccc2[nH]c(C(=O)N[C@@H](CC(C)C)C(=O)N[C@@H](C[C@@H]3CCNC3=O)C(=O)COC(=O)c3c(C)cccc3Cl)cc12` [Example 67, (3S)-3-({N-[(4-methoxy-1H-indol-2-yl)carbonyl]-L-leucyl}amino)-2-oxo-4-[(3S)-2-oxopyrrolidin-3-yl]butyl 2-chloro-6-methyl benzoate]: the inhibition constant (Ki) in assay [1] was 8.82 nM. In addition, in assay [2], the EC50 turned out to be 163 nM.
For the molecule `COc1cccc2[nH]c(C(=O)N[C@@H](CC(C)C)C(=O)N[C@@H](C[C@@H]3CCNC3=O)C(=O)COC(=O)c3c(C)cncc3C)cc12` [Example 68, (3S)-3-({N-[(4-methoxy-1H-indol-2-yl)carbonyl]-L-leucyl}amino)-2-oxo-4-[(3S)-2-oxopyrrolidin-3-yl]butyl 3,5-di methylpyridine-4-carboxylate], the Ki in assay [1] was determined as 7.56 nM.
Turning to `COc1cccc2[nH]c(C(=O)N[C@@H](CC(C)C)C(=O)N[C@@H](C[C@@H]3CCNC3=O)C(=O)COC(=O)c3c(C)nc(C)nc3C)cc12` [Example 70, (3S)-3-({N-[(4-methoxy-1H-indol-2-yl)carbonyl]-L-leucyl}amino)-2-oxo-4-[(3S)-2-oxopyrrolidin-3-yl]butyl 2,4,6-trimethylpyrimidine-5-carboxylate], the Ki in assay [1] came to 5.89 nM. For the same molecule, the concentration giving a half-maximal response (EC50) in assay [2] amounted to 4800 nM.
Regarding `COc1cccc2[nH]c(C(=O)N[C@@H](CC(C)C)C(=O)N[C@@H](C[C@@H]3CCNC3=O)C(=O)COC(=O)c3c(C)ncnc3C)cc12` [Example 71, (3S)-3-({N-[(4-methoxy-1H-indol-2-yl)carbonyl]-L-leucyl}amino)-2-oxo-4-[(3S)-2-oxopyrrolidin-3-yl]butyl 4,6-di methylpyrimidine-5-carboxylate], the Ki in assay [1] turned out to be 0.928 nM. The concentration for a half-maximal effect (EC50) in assay [2] was 315 nM.
For `COc1cccc2[nH]c(C(=O)N[C@@H](CC(C)C)C(=O)N[C@@H](C[C@@H]3CCNC3=O)C(=O)COC(=O)c3c(C)cccc3F)cc12` [Example 72, (3S)-3-({N-[(4-methoxy-1H-indol-2-yl)carbonyl]-L-leucyl}amino)-2-oxo-4-[(3S)-2-oxopyrrolidin-3-yl]butyl 2-fluoro-6-methylbenzoate], the inhibition constant (Ki) in assay [1] came out at 8.91 nM.
As for `COc1cc(C)c(C(=O)OCC(=O)[C@H](C[C@@H]2CCNC2=O)NC(=O)[C@H](CC(C)C)NC(=O)c2cc3c(OC)cccc3[nH]2)c(C)c1` [Example 73, (3S)-3-({N-[(4-methoxy-1H-indol-2-yl)carbonyl]-L-leucyl}amino)-2-oxo-4-[(3S)-2-oxopyrrolidin-3-yl]butyl 4-methoxy-2,6-dimethyl benzoate], in assay [1], the inhibitory constant (Ki) was determined as 117 nM.
Still for that read-out and setting: as for `COc1cccc2[nH]c(C(=O)N[C@@H](CC(C)C)C(=O)N[C@@H](C[C@@H]3CCNC3=O)C(=O)COC(=O)c3c(C)cc(F)cc3C)cc12` [Example 74, (3S)-3-({N-[(4-methoxy-1H-indol-2-yl)carbonyl]-L-leucyl}amino)-2-oxo-4-[(3S)-2-oxopyrrolidin-3-yl]butyl 4-fluoro-2,6-dimethylbenzoate], the figure is 44.3 nM; as for `COc1cccc2[nH]c(C(=O)N[C@@H](CC(C)C)C(=O)N[C@@H](C[C@@H]3CCNC3=O)C(=O)COC(=O)c3c(C)nc(C4CCOCC4)nc3C)cc12` [Example 75, (3S)-3-({N-[(4-methoxy-1H-indol-2-yl)carbonyl]-L-leucyl}amino)-2-oxo-4-[(3S)-2-oxopyrrolidin-3-yl]butyl 4,6-di methyl-2-(tetrahydro-2H-pyran-4-yl)pyrimidine-5-carboxylate], 5.5 nM.

(Values after US12358897B2, “Compounds and method of treating COVID-19” (Pfizer Inc., priority 2020, dated 2025).)
